The values that follow come from ChEMBL document CHEMBL1933049, “Methylenebissantin: a rare methylene-bridged bisflavonoid from Dodonaea viscosa which inhibits Plasmodium falciparum enoyl-ACP reductase” (Bioorg Med Chem Lett, 2012).

The assay deals with T1, Enoyl-acyl-carrier protein reductase (Plasmodium falciparum, UniProt Q965D5).
T1 sequence (Q965D5 whole entry): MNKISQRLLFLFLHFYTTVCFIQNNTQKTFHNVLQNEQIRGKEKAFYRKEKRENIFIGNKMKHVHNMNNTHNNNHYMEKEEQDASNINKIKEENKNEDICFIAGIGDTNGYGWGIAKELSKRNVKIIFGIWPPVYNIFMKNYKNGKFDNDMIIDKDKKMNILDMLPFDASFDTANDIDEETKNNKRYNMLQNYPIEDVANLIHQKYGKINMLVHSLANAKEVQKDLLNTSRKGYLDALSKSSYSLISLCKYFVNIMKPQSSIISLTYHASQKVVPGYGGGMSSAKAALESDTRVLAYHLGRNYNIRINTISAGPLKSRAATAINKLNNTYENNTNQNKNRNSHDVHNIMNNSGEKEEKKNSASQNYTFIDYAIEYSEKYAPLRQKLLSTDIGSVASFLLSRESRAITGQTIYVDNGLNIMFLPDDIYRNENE
Put plainly: Inhibition of Plasmodium falciparum enoyl-ACP reductase assessed as oxidation of NADH to NAD+ after 10 mins by spectrophotometric analysis.

As a reminder, the IC50 is the point on the concentration scale where inhibition reaches its midpoint. Turning to `C[C@H]1C[C@@H](O)[C@]2(C)C(C(=O)O)=CCC[C@H]2[C@]1(C)CCc1ccoc1`, the IC50 entry is reported as “Not Active”.
Same read-out and setting: the same measure for `CCCCCCCCCCCCCCCCCCCCCCOC(=O)/C=C/c1ccc(O)c(O)c1` [DOCOSYL CAFFEATE]: “Not Active”.
As to `COc1c(-c2ccc(O)cc2)oc2cc(O)cc(O)c2c1=O` [ISOKAEMPFERIDE], the IC50 result is given as “Not Active”.
With `COc1ccc(-c2oc3c(Cc4c(O)c(OC)c(O)c5c(=O)c(OC)c(-c6ccc(OC)cc6)oc45)c(O)c(OC)c(O)c3c(=O)c2OC)cc1` [METHYLENEBISSANTIN], where the note is “read-out: IC50”, the IC50 was determined as 91.1 µM.
As for `CC(C)=CCc1cc(O[C@@H]2O[C@H](CO)[C@@H](O)[C@H](O)[C@H]2O)ccc1O` [NEBRODENSIDE A], the IC50 entry was “Not Active”.
Take `COc1cc(C(=O)O)ccc1O` [VANILLIC ACID]: under “read-out: IC50”, the half-maximal inhibitory concentration (IC50) amounted to 920 µM.
